Values quoted from earlier work, collected in patent US11839654B2, “Combination therapy” (Eli Lilly and Company, priority 2018, dated 2023).

Legend:
[1] = system: Tg4510 tau mouse model; settings: Graham et al. 2014; cited from earlier work
[2] = system: JNPL3 tau mouse model; settings: Yuzwa et al. 2012; cited from earlier work

Question: Which “effect on tau pathology and dystrophic neurites” value [1] does the source give for `CCN=C1N[C@@H]2[C@@H](O)[C@H](O)[C@@H](CO)O[C@@H]2S1` [Thiamet-G] here?
Answer: reduction in tau pathology and dystrophic neurites

Question: What about the “effect on motor neuron loss” value [2] of the same compound?
Answer: slowing motor neuron loss
